In US9609884B2, “Anti-fatigue agent” (Suntory Holdings Limited, priority 2007, dated 2017):

Assays:
Format in all cases: in vivo
[1] = tested on: Sprague Dawley male rats under exercise stress; experiment: Forced exercise test, sesamin given after treadmill exercise stress (recovery from fatigue); settings: 180 mg/kg oral in olive oil after 3-hr treadmill exercise stress; versus control group under exercise stress
Method: The second thing to do is measure the motor activity in a forced exercise test. Rats administered with the test substance are forced to have exercise on a treadmill and, thereafter, the motor activity of the animal in the dark period is measured. Since this is an animal model for fatigue from exercise (physical fatigue), an increase in the motor activity as achieved by administering it with the test substance means the verification of resistance to fatigue.
The test sample used in Example 2 was the same sesamin as in Example 1.
Sprague Dawley male rats (6-week old) were acclimatized in a test environment for a week and the animals that had shown normal growth were subjected to the test. One day before the start of the test, the rats were divided into five groups each consisting of eight animals. On the day of the test, all animals were starved from the morning and one group of rats was assigned as a resting group that was not to be subjected to exercise stress. […] Thereafter, the animals were transferred to an automatograph (Supermex manufactured by MUROMACHI KIKAI CO., LTD.) and their motor activity in the dark period was measured.

[2] = tested on: Balb/c male mice kept under water immersion stress; experiment: Measuring fatigue-causing substances (ketone bodies) in the blood of mice under water immersion stress; settings: 50 mg/kg oral once a day for three days during water immersion; versus control group under water immersion stress (olive oil)
From the text: The third thing to do is measure the amount of fatigue-causing substances in the blood. This involves administering the test substance to check to see if it has an action for controlling an increase in the blood concentration of fatigue-causing substances under a physical or mental stress. Although no substances have been identified to be causative of fatigue, one class of candidates may be ketone bodies (collectively referring to acetoacetate, 3-hydroxybutyrate, and acetone). Ketone bodies are known to be metabolites that are produced when free fatty acids […] from the fat tissue on account of lowered glucose availability undergo β-oxidation. If the production of ketone bodies is enhanced beyond their utilization in the extrahepatic tissues, ketone bodies accumulate in the blood, leading to ketosis. Actoacetate and 3-hydroxybutyrate are moderately strong acids, so if ketone bodies accumulate in amounts exceeding the buffering action of the living body, the blood becomes acidic, causing a condition known as acidosis which, in turn, produces a feeling of weariness (Takanori Yamamoto, Igaku no ayumi (Progress in Medicine), Vol. 204, No. 5:325-329, 2003). […]
After three days, blood was drawn from each mouse and the ketone bodies in the serum were measured by the enzyme method with a biochemical automatic analyzer (Model 7070 of Hitachi, Ltd.)

[3] = tested on: Sprague Dawley male rats under exercise stress; experiment: Forced exercise test, sesamin-mixed feed for a week before treadmill exercise stress (prevention of fatigue); settings: versus exercise fatigue control group
Method: The second thing to do is measure the motor activity in a forced exercise test. Rats administered with the test substance are forced to have exercise on a treadmill and, thereafter, the motor activity of the animal in the dark period is measured. Since this is an animal model for fatigue from exercise (physical fatigue), an increase in the motor activity as achieved by administering it with the test substance means the verification of resistance to fatigue. The test sample used in Example 3 was the same sesamin as in Example 1. Sprague Dawley male rats (10-week old) were acclimatized in a test environment for a week and the animals that had shown normal growth were subjected to the test. The rats were divided into three groups each consisting of eight animals. Then, AI[…] was mixed with sesamin to give final concentrations of 0, 0.02, and 0.1% (w/w) to prepare feeds and the rats were let to ingest the respective feeds ad libitum for a week. Thereafter, all animals were given a 3-hr exercise stress by means of a treadmill-type forced walking apparatus (MK-680 manufactured by MUROMACHI KIKAI CO., LTD.) After the end of exercise stress application, the animals were transferred to an automatograph (Supermex manufactured by MUROMACHI KIKAI CO., LTD.) and their motor activity in the dark period was measured.

[4] = tested on: Balb/c male mice kept under water immersion stress; experiment: Water immersion sleep disturbed test (forced swimming under weight load); settings: once a day for two days during water immersion, weight 8% of body weight
Method: The first thing to do is measure the swimming time in a water immersion sleep disturbed test. Mice that have been kept in an environment such as water immersion where they are unable to have a good sleep or take a rest position so they cannot have a physical or mental rest are forced to swim under a weight load and the time it takes for them to have their nose sunk in the water for a period of ten seconds or longer is measured to confirm the degree of their fatigue. Since this is an animal model for physical or mental fatigue, an extension of the swimming time as achieved by administering it with the test substance means the verification of resistance to fatigue, as exemplified by relief of physical and/or mental fatigue, maintenance of physical vigor in the tired model (increase in body strength), or improvement of stamina. A sesamin/episesamin mixture (sesamin:episesamin=1:1 in weight ratio) was used as a test sample. Effectiveness against fatigue was evaluated by the following partial modification of the method of Tanaka et al. (Neuroscience, Let. 352, 159-162, 2003). The test animals Balb/c male mice (8-week old) were divided into five groups, each consisting of 12 animals and having the same average body weight. Four of those five groups were water immersion groups, which were kept in breeding cages, not on paper chips but in tap water (23° C.) supplied to a depth of 7 mm, thereby disturbing sleep of the mice. […] After two days, each mouse was fitted with a weight at the tail which corresponded to 8% of its body weight, and was allowed to swim in a water tank of 18 cm^φ that was filled with water to a depth of 30 cm; the time it took for each mouse to have its nose sunk in water for a period of at least 10 seconds was measured. The mice in the groups kept under water immersion stress could swim for a shorter period than the mice in the normally kept group and the degree by which the shortening of the swimming time could be controlled in the sesamin administered groups was measured to evaluate the effectiveness of sesamin against fatigue. […]

Structure (SMILES): c1cc2c(cc1[C@H]1OC[C@H]3[C@@H]1CO[C@@H]3c1ccc3c(c1)OCO3)OCO2 [sesamin]
- motor activity in the dark period [1]: an increase in the motor activity was confirmed
- concentration of ketone bodies in the serum [2]: significant control of the increase in the concentration of ketone bodies
- motor (physical) activity in the dark period ([3]; mixed feed containing 0.02% (w/w) sesamin ad libitum for a week before 3-hr exercise stress): almost the same physical activity
- motor (physical) activity in the dark period ([3]; mixed feed containing 0.1% (w/w) sesamin (about 80 mg/kg) ad libitum for a week before 3-hr exercise stress): enhanced physical activity
- swimming time (control group kept under water immersion stress taken as 100%) ([4]; 12.5 mg/kg oral): 150%
- swimming time (control group kept under water immersion stress taken as 100%) ([4]; 50 mg/kg oral): 300%
- swimming time (control group kept under water immersion stress taken as 100%) ([4]; 200 mg/kg oral): 133%
